Experimental data published in patent US20240246913A1, “2-CARBOXYL-INDOLE INHIBITORS OF METALLO-BETA-LACTAMASES” (Oxford University Innovation Limited, priority 2021, published 2024).

Key:
[1] = Metabolic stability in mouse hepatocytes; type: in vitro ADME; conditions: cryopreserved mouse hepatocytes, 1 μM compound, 37° C., up to 90 min, read-out: Metabolic stability in hepatocytes, in vitro t1/2, Mouse
Description: (§1) Metabolic stability assays were performed in cryopreserved human and mouse hepatocytes. The hepatocytes were thawed and added to “Thawing media”, and centrifuged to pellet the hepatocytes. The cell pellet was taken up in Williams medium E (Invitrogen A1217601), the number of cells was calculated and adjusted to 1.0×10^6 cells/mi. The incubation was carried out on a heater-shaker at […], in a 24-well Picoplate (round bottom, PerkinElmer), using an incubation volume of […]. Thus, to obtain a final compound concentration of 1 μM, 0.7 μl of the 1 mM compound stock solution was pipetted to the wells of the plate. Reaction was initiated by adding 700 μl of cell suspension. Samples were incubated at 37° C. for […] and a zero sample was taken, i.e. 100 μl sample was removed to a 96-well plate and the reaction was quenched by adding 100 μl of 100% MeCN containing 50 nM Warfarin as an internal control. Consecutive samples were taken at time-points 5 min, 15 min, 30 min, 60 min, and 90 min. After finishing the experiment, samples were centrifuged at 3000 rpm for 15 min and before analysis by LC-MS/MS (Waters Corp, Milford, MA, USA).

[2] = molecular target: VIM-1 (Pseudomonas aeruginosa, UniProt A0A0F7KYQ8); assay: MBL inhibition, FC-5 fluorescence assay, VIM-1; type: biochemical; conditions: FC-5 cephalosporin substrate, ranges of obtained pIC50, read-out: pIC50 VIM-1 (converted)
Summary of the method: (§2)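 Reported potencies derive from normalized dose-response fits with variable slope, built on initial hydrolysis rates of fluorogenic cephalosporin FC-5 monitored at 380/460 nm, with quadruplicate wells at every concentration.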

[3] = molecular target: VIM-2 (Escherichia coli, UniProt Q5U7L7); assay: MBL inhibition, FC-5 fluorescence assay, VIM-2; type: biochemical; conditions: FC-5 cephalosporin substrate, ranges of obtained pIC50, read-out: pIC50 VIM-2 (converted)
Summary of the method: as §2

[4] = tested on: bacteria; assay: Thigh and/or septicaemia mouse model of infection, with meropenem; type: in vivo; conditions: NMRI mice; single dose with meropenem subcutaneous 1 h after inoculation; endpoint 3 h after treatment initiation
Description: Female NMRI mice (5-6 weeks old, 26-30 gram, n=5) were rendered neutropenic via intraperitoneal injection of two doses of cyclophosphamide on day 4 and day 1 before infection. The animals were infected via intramuscular injection of an inoculum containing 10^6 CFU/mL of bacteria in the left thigh. The animals were treated with a single dose of meropenem subcutaneous +/− inhibitor 1 h after inoculation, and animals were either euthanised at the start of treatment or at the study endpoint at 3 h after treatment initiation. Clinical scores were monitored at 1 and 4 hours post inoculation and were in all cases mild or moderate. Thighs were aseptically removed from the animals, homogenised, diluted, and plated for incubation. Bacterial counting was performed after 18-22 h of incubation at 35° C. in ambient air.
Immunocompetent female NMRI mice mice (5-6 weeks old, 26-30 gram, n=5) were inoculated intraperitoneally with 0.5 ml inoculum containing 5×10^5 CFU suspended in 5% porcine mucin.
The animals were treated with a single dose of meropenem subcutaneous+/−metallo-b-lactamase inhibitor intravenous 1 h after inoculation. Animals were either euthanised at the start of treatment or at the study endpoint at 3 h after treatment initiation. Clinical scores were monitored at 1 and 4 hours post inoculation and were in all cases mild or moderate. Mice were anaesthetised anesthetized with a buprenorphine/tiletamine/zolazepam cocktail and bled, then euthanized and the peritoneum flushed with 2 ml sterile 0.9% NaCl and collected. The blood and/or peritoneal flush were serially diluted and plated for incubation. Bacterial counting was performed after 18-22 h of incubation at 35° C. in ambient air.

[5] = Plasma protein binding, equilibrium dialysis, mouse plasma; type: in vitro ADME; conditions: pH 7.4, equilibrium dialysis (RED) 4 hours at 37° C., read-out: Plasma protein binding, fu, Mouse
Summary of the method: (§3)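 Compound at 10 μM in plasma dialysed against 67 mM phosphate buffer pH 7.4 for 4 h at 37° C. in RED device; unbound fraction from buffer and plasma levels by LC-MS/MS. Plasma stability checked in parallel over 4 h at 37° C. versus frozen control.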

[6] = Metabolic stability in human hepatocytes; type: in vitro ADME; conditions: cryopreserved human hepatocytes, 1 μM compound, 37° C., up to 90 min, read-out: Metabolic stability in hepatocytes, in vitro t1/2, Human
Description: as §1

[7] = molecular target: IMP-1 (Serratia marcescens, UniProt P52699); assay: MBL inhibition, FC-5 fluorescence assay, IMP-1; type: biochemical; conditions: FC-5 cephalosporin substrate, fluorescence; ranges of obtained pIC50; read-out: pIC50 IMP-1 (converted)
Summary of the method: as §2

[8] = molecular target: NDM-1 (Klebsiella pneumoniae, UniProt C7C422); assay: MBL inhibition, FC-5 fluorescence assay, NDM-1; type: biochemical; conditions: FC-5 cephalosporin substrate, fluorescence; ranges of obtained pIC50; read-out: pIC50 NDM-1 (converted)
Summary of the method: as §2

[9] = Plasma protein binding, equilibrium dialysis, human plasma; type: in vitro ADME; conditions: pH 7.4, equilibrium dialysis (RED) 4 hours at 37° C., read-out: Plasma protein binding, fu, Human
Summary of the method: as §3

[10] = tested on: Escherichia coli NDM-7; assay: Antibiotic susceptibility testing (MIC), EC NDM-7; type: cell-based; conditions: agar or broth dilution (CLSI/EUCAST)
Description: (§4) Antibiotic susceptibility testing was performed using the agar or broth dilution method, in line with the Clinical and Laboratory Standards Institute (CLSI) and European Committee on Antimicrobial Susceptibility Testing (EUCAST) requirements.

[11] = tested on: Acinetobacter baumannii NDM-1; assay: Antibiotic susceptibility testing (MIC), AB NDM-1; type: cell-based; conditions: agar or broth dilution (CLSI/EUCAST)
Description: as §4

[12] = tested on: Escherichia coli NDM-1; assay: Antibiotic susceptibility testing (MIC), EC NDM-1; type: cell-based; conditions: agar or broth dilution (CLSI/EUCAST)
Description: as §4

NDM-1, sequence (C7C422 29-270, looked up, species assumed): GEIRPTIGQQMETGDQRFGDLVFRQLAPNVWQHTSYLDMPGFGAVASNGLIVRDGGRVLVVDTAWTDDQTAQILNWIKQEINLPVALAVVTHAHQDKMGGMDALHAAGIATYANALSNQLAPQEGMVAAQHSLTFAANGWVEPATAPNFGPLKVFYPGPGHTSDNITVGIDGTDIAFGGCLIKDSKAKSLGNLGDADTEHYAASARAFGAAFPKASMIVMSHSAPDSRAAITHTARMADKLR
IMP-1, sequence (P52699 19-246, looked up, species assumed): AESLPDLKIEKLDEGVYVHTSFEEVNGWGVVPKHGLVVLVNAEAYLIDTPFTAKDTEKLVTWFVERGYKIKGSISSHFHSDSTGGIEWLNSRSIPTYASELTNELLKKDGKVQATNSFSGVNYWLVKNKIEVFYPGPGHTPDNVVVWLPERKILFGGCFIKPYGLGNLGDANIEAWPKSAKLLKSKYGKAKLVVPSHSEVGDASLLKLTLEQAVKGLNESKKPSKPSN

| SMILES | half-life at 1 μM [1] [h] | IC50 [2] [nM] | IC50 [3] [nM] | Dose required to reduce minim 1 log fold CFU in a thigh and or a sepsis animal model [4] | fraction unbound at 4 h, 10 μM [5] | half-life at 1 μM [6] [h] | IC50 [7] [nM] | IC50 [8] [nM] | fraction unbound at 4 h, 10 μM [9] | MIC values EC NDM-7 [10] | MIC values AB NDM-1 [11] | MIC values EC NDM-1 [12] |
| --- | --- | --- | --- | --- | --- | --- | --- | --- | --- | --- | --- | --- |
| CC(NC(=O)c1ccc(CN)cc1)c1cccc2c(-c3ccc(CN4CCOCC4)nc3)c(C(=O)O)[nH]c12 (stereo not shown) [IC-11, 7-(1-((4-(Aminomethyl)benzoyl)amino)ethyl)-3-(6-(morpholin-4-ylmethyl)pyridin-3-yl)-1H-indole-2-carboxylic acid] | > 6.67 | > 10 | 1 to 10 | B (B = 30-10 mg/kg) | 0.005 to 0.05 | > 6.67 | > 10 | < 0.1 | > 0.25 |  |  |  |
| C[C@@H](c1cccc2c(-c3ccc(NS(C)(=O)=O)c(F)c3)c(C(=O)O)[nH]c12)N1C[C@]2(C[C@@H](CN)C2)OC1=O [IC-14, 7-((S)-1-((2S,4r)-2-(Aminomethyl)-6-oxo-5-oxa-7-azaspiro[3.4]octan-7-yl)ethyl)-3-(3-fluoro-4-(methylsulfonamido)phenyl)-1H-indole-2-carboxylic acid] | 2.5 to 6.67 | 0.1 to 1 | 0.1 to 1 | C (C = 5-10 mg/kg) | 0.05 to 0.25 | > 6.67 | > 10 | < 0.1 | 0.05 to 0.25 | A (A = MIC values ≤ 1) | B (B MIC values 2 ÷ 8) | A (A = MIC values ≤ 1) |
| COc1cc(-c2c(C(=O)O)[nH]c3c([C@H](C)N4C[C@]5(C[C@@H](CN)C5)OC4=O)cccc23)ccn1 [IC-17, 7-((1S)-1-(2-(aminomethyl)-6-oxo-5-oxa-7-azaspiro[3.4]octan-7-yl)ethyl)-3-(2-methoxypyridin-4-yl)-1H-indole-2-carboxylic acid] | 2.5 to 6.67 | 1 to 10 | < 0.1 | B (B = 30-10 mg/kg) | 0.005 to 0.05 | > 6.67 | > 10 | 0.1 to 1 | 0.05 to 0.25 | A (A = MIC values ≤ 1) | B (B MIC values 2 ÷ 8) | A (A = MIC values ≤ 1) |
| C[C@@H](c1cccc2c(-c3ccnc(O)c3)c(C(=O)O)[nH]c12)N1C[C@]2(C[C@@H](CN)C2)OC1=O [IC-18, 7-((S)-1-((2S,4r)-2-(aminomethyl)-6-oxo-5-oxa-7-azaspiro[3.4]octan-7-yl)ethyl)-3-(2-hydroxypyridin-4-yl)-1H-indole-2-carboxylic acid] | > 6.67 | 1 to 10 | 0.1 to 1 | C (C = 5-10 mg/kg) | 0.005 to 0.05 | < 2.5 | > 10 | 0.1 to 1 | > 0.25 | A (A = MIC values ≤ 1) | B (B MIC values 2 ÷ 8) | A (A = MIC values ≤ 1) |
| C[C@@H](c1cccc2c(-c3cncc(O)c3)c(C(=O)O)[nH]c12)N1C[C@]2(C[C@@H](CN)C2)OC1=O [IC-23, 7-((S)-1-((2S,4r)-2-(aminomethyl)-6-oxo-5-oxa-7-azaspiro[3.4]octan-7-yl)ethyl)-3-(5-hydroxypyridin-3-yl)-1H-indole-2-carboxylic acid] |  | 1 to 10 | 0.1 to 1 | C (C = 5-10 mg/kg) | 0.005 to 0.05 |  | > 10 | 1 to 10 | 0.05 to 0.25 | A (A = MIC values ≤ 1) | B (B MIC values 2 ÷ 8) | A (A = MIC values ≤ 1) |
| C[C@@H](c1cccc2c(-c3cc[nH]c(=O)c3)c(C(=O)O)[nH]c12)n1cc(CN2CC(N)C2)oc1=O [IC-54, 7-[(1S)-1-{5-[(3-Aminoazetidin-1-yl)methyl]-2-oxo-2,3-dihydro-1,3-oxazol-3-yl}ethyl]-3-(2-oxo-1,2-dihydropyridin-4-yl)-1H-indole-2-carboxylic acid] |  | > 10 | 1 to 10 | C (C = 5-10 mg/kg) | > 0.25 |  | > 10 | 0.1 to 1 | > 0.25 | A (A = MIC values ≤ 1) | B (B MIC values 2 ÷ 8) | A (A = MIC values ≤ 1) |
| COc1cc(-c2c(C(=O)O)[nH]c3c([C@H](C)n4cc(CN5CC(N)C5)oc4=O)cccc23)ccn1 [IC-56, 7-[(1S)-1-{5-[(3-aminoazetidin-1-yl)methyl]-2-oxo-2,3-dihydro-1,3-oxazol-3-yl}ethyl]-3-(2-methoxypyridin-4-yl)-1H-indole-2-carboxylic acid] | < 2.5 | > 10 | 0.1 to 1 | C (C = 5-10 mg/kg) | 0.005 to 0.05 | > 6.67 | > 10 | < 0.1 | 0.05 to 0.25 | A (A = MIC values ≤ 1) | B (B MIC values 2 ÷ 8) | A (A = MIC values ≤ 1) |
| C[C@H](NC(=O)c1ccc(CN)cc1)c1cccc2c(-c3ccc(CN4CCOCC4)nc3)c(C(=O)O)[nH]c12 [IC-59, 7-((1S)-1-((4-(aminomethyl)benzoyl)amino)ethyl)-3-(6-(morpholin-4-ylmethyl)pyridin-3-yl)-1H-indole-2-carboxylic acid] |  | > 10 | < 0.1 | B (B = 30-10 mg/kg) |  |  | > 10 | < 0.1 |  | A (A = MIC values ≤ 1) | A (A = MIC values ≤ 1) | A (A = MIC values ≤ 1) |
| CC(C)c1cccc2c(-c3cc(Cl)cc(Cl)c3)c(C(=O)O)[nH]c12 [Prior Art Compound 76, reference compound] | < 2.5 | > 10 | 0.1 to 1 | A (A = >100 mg/kg) | < 0.005 | < 2.5 | > 10 | 1 to 10 | < 0.005 |  |  |  |
